Some results are limits rather than exact numbers.

For the first experiment, the target named is human Nav1.7 (Homo sapiens (Human), UniProt Q15858). Nature of the experiment: FLIPR or FLIPR TETRA sodium dye assay with KCl and test article pre-incubation. Format: cell-based. As to conditions: read-out: Nav1.7 Activity (μM) FLIPR assay IC50 (μM) ± SEM.
Chain of human Nav1.7 (Q15858 with tags, fused parts or gaps limits assumed): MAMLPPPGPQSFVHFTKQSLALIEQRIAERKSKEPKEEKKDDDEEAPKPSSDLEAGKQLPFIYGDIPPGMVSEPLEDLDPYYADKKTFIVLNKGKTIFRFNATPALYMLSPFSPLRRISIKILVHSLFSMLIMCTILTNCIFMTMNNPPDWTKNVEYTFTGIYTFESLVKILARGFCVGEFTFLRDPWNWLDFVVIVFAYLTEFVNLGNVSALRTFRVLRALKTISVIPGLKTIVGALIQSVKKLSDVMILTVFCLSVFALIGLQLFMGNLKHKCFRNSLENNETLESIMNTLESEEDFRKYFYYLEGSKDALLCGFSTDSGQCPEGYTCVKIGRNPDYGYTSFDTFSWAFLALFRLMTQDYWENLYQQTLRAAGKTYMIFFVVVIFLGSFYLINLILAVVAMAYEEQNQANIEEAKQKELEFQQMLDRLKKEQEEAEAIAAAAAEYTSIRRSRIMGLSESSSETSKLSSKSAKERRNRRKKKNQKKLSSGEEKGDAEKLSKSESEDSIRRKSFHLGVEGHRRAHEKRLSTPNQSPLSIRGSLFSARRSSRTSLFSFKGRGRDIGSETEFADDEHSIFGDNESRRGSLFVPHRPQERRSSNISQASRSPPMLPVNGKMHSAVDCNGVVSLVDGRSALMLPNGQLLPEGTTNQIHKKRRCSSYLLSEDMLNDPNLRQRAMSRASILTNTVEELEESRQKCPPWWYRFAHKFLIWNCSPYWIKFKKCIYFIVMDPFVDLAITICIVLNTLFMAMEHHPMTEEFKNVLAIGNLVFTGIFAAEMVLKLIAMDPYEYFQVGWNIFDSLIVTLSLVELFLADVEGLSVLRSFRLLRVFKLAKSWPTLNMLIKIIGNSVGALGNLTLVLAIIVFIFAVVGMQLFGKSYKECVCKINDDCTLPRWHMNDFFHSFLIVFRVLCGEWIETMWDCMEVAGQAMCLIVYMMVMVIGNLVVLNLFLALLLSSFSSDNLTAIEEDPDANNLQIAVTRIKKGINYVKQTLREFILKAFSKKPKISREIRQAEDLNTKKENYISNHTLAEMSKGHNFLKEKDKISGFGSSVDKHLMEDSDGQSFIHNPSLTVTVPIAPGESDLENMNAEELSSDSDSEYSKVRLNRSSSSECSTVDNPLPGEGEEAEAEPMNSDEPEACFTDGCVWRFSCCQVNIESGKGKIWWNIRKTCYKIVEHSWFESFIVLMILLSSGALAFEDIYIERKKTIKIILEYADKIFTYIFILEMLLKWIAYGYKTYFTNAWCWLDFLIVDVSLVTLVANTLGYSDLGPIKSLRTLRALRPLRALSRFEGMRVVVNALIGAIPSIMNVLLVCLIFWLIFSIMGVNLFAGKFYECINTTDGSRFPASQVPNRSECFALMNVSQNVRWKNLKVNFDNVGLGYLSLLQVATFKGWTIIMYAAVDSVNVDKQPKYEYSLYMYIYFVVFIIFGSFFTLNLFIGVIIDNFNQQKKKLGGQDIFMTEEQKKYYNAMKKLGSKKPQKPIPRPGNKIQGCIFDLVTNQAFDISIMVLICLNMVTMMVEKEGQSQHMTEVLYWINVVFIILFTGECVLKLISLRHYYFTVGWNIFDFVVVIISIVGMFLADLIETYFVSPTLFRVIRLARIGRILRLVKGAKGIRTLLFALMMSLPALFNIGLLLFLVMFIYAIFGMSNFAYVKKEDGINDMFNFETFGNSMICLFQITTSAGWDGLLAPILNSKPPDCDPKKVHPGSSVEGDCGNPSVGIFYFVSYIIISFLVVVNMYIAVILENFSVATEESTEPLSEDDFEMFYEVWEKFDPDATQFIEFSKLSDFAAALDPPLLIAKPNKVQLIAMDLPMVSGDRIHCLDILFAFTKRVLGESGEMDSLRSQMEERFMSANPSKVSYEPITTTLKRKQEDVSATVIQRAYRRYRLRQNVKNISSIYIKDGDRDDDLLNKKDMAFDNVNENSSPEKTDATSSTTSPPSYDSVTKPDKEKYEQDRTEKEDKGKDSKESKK
For `COc1ncc(-c2ccccc2Cc2cccc(-c3ccc(OCC(F)(F)F)nc3)n2)cn1` [Compound 13, 6-(2-(2-methoxypyrimidin-5-yl)benzyl)-6′-(2,2,2-trifluoroethoxy)-2,3′-bipyridine], the IC50 – broadly, the concentration needed to halve the response being measured – came out at 0.849 ± 0.069 µM.

Still in this experiment, the particulars now being: recombinant HEK293 cells expressing human Nav1.7 alpha subunit; CoroNa Green sodium dye; veratridine and scorpion venom as agonists; read-out: Nav1.7 Activity (μM) FLIPR assay IC50 (μM) ± SEM.
Turning to `CSc1ncc(-c2ccccc2Cc2cccc(-c3ccc(OCC(F)(F)F)nc3)n2)cn1` [Compound 14, 6-(2-(2-(methylthio)pyrimidin-5-yl)benzyl)-6′-(2,2,2-trifluoroethoxy)-2,3′-bipyridine], the 50% inhibitory concentration (IC50) stood at 0.947 ± 0.06 µM.

In the case of `Oc1ccccc1Cc1cccc(-c2ccc(OCC(F)(F)F)nc2)n1` [Compound 8, 2-((6′-(2,2,2-trifluoroethoxy)-[2,3′-bipyridin]-6-yl)methyl)phenol], the IC50 was greater than 20 µM.

Consider `CN(C)c1ncc(-c2ccccc2Cc2cccc(-c3ccc(OCC(F)(F)F)nc3)n2)cn1` [Compound 15, N,N-dimethyl-5-(2-((6′-(2,2,2-trifluoroethoxy)-[2,3′-bipyridin]-6-yl)methyl)phenyl)pyrimidin-2-amine], for which the IC50 was determined as 0.34 ± 0.012 µM.

As for `Fc1ccc(-c2ccccc2Cc2cccc(-c3ccc(OCC(F)(F)F)nc3)n2)cn1` [Compound 12, 6-(2-(6-fluoropyridin-3-yl)benzyl)-6′-(2,2,2-trifluoroethoxy)-2,3′-bipyridine], the 50% inhibitory concentration (IC50) was greater than 20 µM.

Turning to `COc1ncccc1-c1ccccc1Cc1cccc(-c2ccc(OCC(F)(F)F)nc2)n1` [Compound 11, 6-(2-(2-methoxypyridin-3-yl)benzyl)-6′-(2,2,2-trifluoroethoxy)-2,3′-bipyridine], the IC50 was greater than 20 µM.

The values above are taken from US9340504B2, “Pyridine and piperidine derivatives as novel sodium channel blockers” (priority 2013, dated 2016).
